Tests used:
human DP1 receptor = target: T1, human DP1 receptor (Homo sapiens, UniProt Q13258); test: DP1 radioligand binding assay ([3H]BWA868C, platelet membranes); details: [3H]BWA868C binding, human platelet membranes; read-out: hDP1
T1 construct: tissue Biological Specialty Corporation; host or cells: human platelet membranes
T1 sequence (Q13258 1-359): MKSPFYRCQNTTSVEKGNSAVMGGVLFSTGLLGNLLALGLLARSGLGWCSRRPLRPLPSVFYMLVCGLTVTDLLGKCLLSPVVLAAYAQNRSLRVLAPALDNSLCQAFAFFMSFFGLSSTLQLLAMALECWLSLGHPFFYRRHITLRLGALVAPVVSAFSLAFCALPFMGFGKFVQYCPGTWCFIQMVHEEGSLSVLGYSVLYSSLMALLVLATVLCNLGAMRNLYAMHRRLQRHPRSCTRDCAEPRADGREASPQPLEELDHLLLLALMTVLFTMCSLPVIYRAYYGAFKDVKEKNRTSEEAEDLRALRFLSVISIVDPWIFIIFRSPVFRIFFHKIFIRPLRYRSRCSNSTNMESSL
Description: The ability of a compound to bind to the human DPI receptor was evaluated via a radioligand membrane binding assay using the DP1 selective synthetic ligand [^311]BWA868C. Packed human platelets (Biological Specialty Corporation), were resuspended in 6 volumes of Hepes/HBSS buffer (10 mM Hepes, 1 mM DTT in Hanks Balanced Salt Solution (HBSS)), lysed and centrifuged at 75,000×g to pellet the membranes. Membranes were resuspended in Hepes/HBSS buffer to approximately 12 mg protein/ml. Membranes (20 μg protein/well) are incubated in 96-well plates with 2 nM [^3H]BWA868C and test compound in Assay Buffer (50 mM Hepes, 10 mM MnCl2, 1 mM EDTA, plus or minus 0.2% human serum albumin, pH 7.4) for 60 minutes at room temperature. The reactions are terminated by rapid filtration through Whatman GF/C glass fibre filter plates. The filter plates were pre-soaked in 0.33% polyethylenimine for 30 minutes at room temperature then washed in Wash Buffer (50 mM Hepes, 0.5 M NaCl pH 7.4) prior to harvesting. After harvesting, the filter plates are washed 3 times with 1 ml cold Wash Buffer then dried. Scintillant is then added to the plates and the radioactivity retained on the filters is determined on a Packard TopCount (Perkin Elmer). Specific binding is determined as total radioactive binding minus non-specific binding in the presence of 10 μM BW A868C. IC50s were determined using GraphPad prism analysis of drug titration curves.

human DP2 receptor = target: T2, human DP2 receptor (Homo sapiens, UniProt Q9Y5Y4); test: DP2/CRTH2 radioligand binding assay ([3H]PGD2); details: [3H]PGD2 binding, membranes of HEK293 cells expressing human DP2; read-out: hDP2
T2 construct: expressed in transfected cells
T2 sequence (Q9Y5Y4 1-395): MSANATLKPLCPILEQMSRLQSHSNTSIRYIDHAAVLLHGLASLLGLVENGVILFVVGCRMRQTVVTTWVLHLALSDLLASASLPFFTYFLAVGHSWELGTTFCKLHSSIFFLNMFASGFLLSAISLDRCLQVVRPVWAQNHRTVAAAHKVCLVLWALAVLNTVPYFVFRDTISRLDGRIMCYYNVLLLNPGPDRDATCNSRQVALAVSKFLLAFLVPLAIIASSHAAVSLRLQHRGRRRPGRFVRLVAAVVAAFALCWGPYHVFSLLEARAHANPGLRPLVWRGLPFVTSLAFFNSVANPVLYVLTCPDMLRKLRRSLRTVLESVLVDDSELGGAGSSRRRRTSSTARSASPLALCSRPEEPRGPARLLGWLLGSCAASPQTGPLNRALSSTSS
Description: The ability of a compound to bind to the human DP2 receptor is assessed via a radioligand binding assay using [^3H]PGD2. HEK293 cells stably expressing recombinant human DP2 are resuspended in 10 mM Hepes, 7.4 containing 1 mM DTT, lysed and centrifuged at 75,000×g to pellet the membranes. The membranes are resuspended in 10 mM Hepes, 7.4 containing 1 mM DTT and 10% glycerol to approximately 5 mg protein/ml. Membranes (2-10 μg protein/well) are incubated in 96-well plates with 1 nM [^3H]PGD2 and test compound in Assay Buffer (50 mM Hepes, 10 mM MnCl2, 1 mM EDTA, plus or minus 0.2% human serum albumin, pH 7.4) for 60 minutes at room temperature. The reactions are terminated by rapid filtration through Whatman GF/C glass fibre filter plates. The filter plates were pre-soaked in 0.33% polyethylenimine for 30 minutes at room temperature then washed in Wash Buffer (50 mM Hepes, 0.5 M NaCl pH 7.4) prior to harvesting. After harvesting, the filter plates are washed 3 times with 1 ml cold Wash Buffer then dried. Scintillant is then added to the plates and the radioactivity retained on the filters is determined on a Packard TopCount (Perkin Elmer). Specific binding is determined as total radioactive binding minus non-specific binding in the presence of 10 μM PGD2. IC50s were determined using GraphPad prism analysis of drug titration curves.

Row | SMILES | IC50 (human DP1 receptor) [µM] | IC50 (human DP2 receptor) [nM]
1 | CCN(Cc1cc(C(F)(F)F)ccc1-c1cc(CC(=O)O)ccc1OC)C(=O)OCc1ccc(F)cc1 [Compound 1-41, (2′-{[Ethyl-(4-fluoro-benzyloxycarbonyl)-amino]-methyl}-6-methoxy-4′-trifluoromethyl-biphenyl-3-yl)-acetic acid] | 1 to 30 | –
2 | COc1ccc(CC(=O)O)cc1-c1ccc(C(F)(F)F)cc1CN(C)C(C)=O [Compound 1-1, {2′-[(Acetyl-methyl-amino)-methyl]-6-methoxy-4′-trifluoromethyl-biphenyl-3-yl}-acetic acid] | 1 to 30 | –
3 | CCN(Cc1cc(C(F)(F)F)ccc1-c1cc(CC(=O)O)ccc1OC)C(=O)OCc1ccc(Cl)cc1 [Compound 1-42, (2′-{[(4-Chloro-benzyloxycarbonyl)-ethyl-amino]-methyl}-6-methoxy-4′-trifluoromethyl-biphenyl-3-yl)-acetic acid] | 1 to 30 | –
4 | CCN(Cc1cc(C(F)(F)F)ccc1-c1cc(CC(=O)O)ccc1OC)C(=O)OC [Compound 1-23, {2′-[(Ethyl-methoxycarbonyl-amino)-methyl]-6-methoxy-4′-trifluoromethyl-biphenyl-3-yl}-acetic acid] | 1 to 30 | –
5 | CCN(Cc1cc(C(F)(F)F)ccc1-c1cc(C(C)C(=O)O)ccc1OC)C(=O)NC1CC1 (centres unmarked) [Compound 1-243, 2-[2′-(3-Cyclopropyl-1-ethyl-ureidomethyl)-6-methoxy-4′-trifluoromethyl-biphenyl-3-yl]-propionic acid] | – | < 300
6 | CCN(Cc1cc(C(F)(F)F)ccc1-c1cc(CC(=O)O)cc(C(F)(F)F)c1)C(=O)NCc1ccc(Cl)cc1 [Compound 1-193, {2′-[3-(4-Chloro-benzyl)-1-ethyl-ureidomethyl]-5,4′-bis-trifluoromethyl-biphenyl-3-yl}-acetic acid] | – | < 300
7 | CCOc1ccc(-c2ccc(-c3cc(CC(=O)O)ccc3OC)c(CN(CC)C(=O)CCc3ccccc3)c2)cn1 [Compound 1-256, (4′-(6-Ethoxy-pyridin-3-yl)-2′-{[ethyl-(3-phenyl-propionyl)-amino]-methyl}-6-methoxy-biphenyl-3-yl)-acetic acid] | – | < 300
8 | CCN(Cc1cc(C(F)(F)F)ccc1-c1cc(CC(=O)O[C@@H]2O[C@H](C(=O)O)[C@@H](O)[C@H](O)[C@H]2O)ccc1OC)C(=O)NCc1ccccc1 [Compound 2-17, (2S,3S,4S,5R,6S)-6-{2-[2′-(3-Benzyl-1-ethyl-ureidomethyl)-6-methoxy-4′-trifluoromethyl-biphenyl-3-yl]-acetoxy}-3,4,5-trihydroxy-tetrahydro-pyran-2-carboxylic acid] | – | 300 to 1000
9 | CCN(Cc1cc(C(F)(F)F)ccc1-c1cc(CC(=O)O)cc(C(F)(F)F)c1)C(=O)OCc1ccc(Cl)cc1 [Compound 1-189, (2′-{[(4-Chloro-benzyloxycarbonyl)-ethyl-amino]-methyl}-5,4′-bis-trifluoromethyl-biphenyl-3-yl)-acetic acid] | – | < 300
10 | CCN(Cc1cc(C(F)(F)F)ccc1-c1cc([C@@H](C)C(=O)O)cc(C(F)(F)F)c1)C(=O)NCc1ccccc1 [Compound 1-239, (R)-2-[2′-(3-Benzyl-1-ethyl-ureidomethyl)-5,4′-bis-trifluoromethyl-biphenyl-3-yl]-propionic acid] | – | < 300
11 | CCN(Cc1cc(SC)ccc1-c1cc(Cl)cc(CC(=O)O)c1)C(=O)C1CC1 [Compound 1-242, {5-Chloro-2′-[(cyclopropanecarbonyl-ethyl-amino)-methyl]-4′-methylsulfanyl-biphenyl-3-yl}-acetic acid] | – | < 300
12 | CCN(Cc1cc(C(F)(F)F)ccc1-c1cc(CC(=O)O)ccc1OC)C(=O)C(C)(C)C [Compound 1-245, (2′-{[(2,2-Dimethyl-propionyl)-ethyl-amino]-methyl}-6-methoxy-4′-trifluoromethyl-biphenyl-3-yl)-acetic acid] | – | 1000 to 30000
13 | CCN(Cc1cc(C(F)(F)F)ccc1-c1cc(C(C)C(=O)O)ccc1OC)C(=O)C1CC1 (centres unmarked) [Compound 1-217, 2-{2′-[(Cyclopropanecarbonyl-ethyl-amino)-methyl]-6-methoxy-4′-trifluoromethyl-biphenyl-3-yl}-propionic acid] | – | < 300

Second part, the compound after the results:

Row | IC50 (human DP1 receptor) [µM] | IC50 (human DP2 receptor) [nM] | SMILES
14 | 1 to 30 | – | CCN(Cc1cc(C(F)(F)F)ccc1-c1cc(CC(=O)O)ccc1F)C(C)=O [Compound 1-10, {2′-[(Acetyl-ethyl-amino)-methyl]-6-fluoro-4′-trifluoromethyl-biphenyl-3-yl}-acetic acid]
15 | 1 to 30 | – | CCN(Cc1cc(F)ccc1-c1cc(CC(=O)O)ccc1OC)C(=O)C1CC1 [Compound 1-186, {2′-[(Cyclopropanecarbonyl-ethyl-amino)-methyl]-4′-fluoro-6-methoxy-biphenyl-3-yl}-acetic acid]
16 | 1 to 30 | – | CCN(Cc1cc(C(F)(F)F)ccc1-c1cc(CC(=O)O)ccc1OC)C(=O)COC [Compound 1-46, (2′-{[Ethyl-(2-methoxy-acetyl)-amino]-methyl}-6-methoxy-4′-trifluoromethyl-biphenyl-3-yl)-acetic acid]
17 | – | < 300 | CCN(Cc1ccc(OC)cc1-c1cc(CC(=O)O)ccc1OC)C(=O)NCc1ccccc1 [Compound 1-197, [2′-(3-Benzyl-1-ethyl-ureidomethyl)-6,5′-dimethoxy-biphenyl-3-yl]-acetic acid]
18 | – | < 300 | CCN(Cc1cc(C(F)(F)F)ccc1-c1cc(CC(=O)O)ccc1OC)C(N)=O [Compound 1-210, {2′-[(1-Ethyl-ureido)-methyl]-6-methoxy-4′-trifluoromethyl-biphenyl-3-yl}-acetic acid]
19 | – | < 300 | CCN(Cc1cc(C(F)(F)F)ccc1-c1cc([C@H](C)C(=O)N[C@H](C)Cc2ccccc2)cc(C(F)(F)F)c1)C(=O)NCc1ccccc1 [Compound 2-11, (S)-2-[2′-(3-Benzyl-1-ethyl-ureidomethyl)-5,4′-bis-trifluoromethyl-biphenyl-3-yl]-N—((R)-1-methyl-2-phenyl-ethyl)-propionamide]
20 | – | < 300 | CCN(Cc1cc(C(F)(F)F)ccc1-c1cc(CC(=O)O)ccc1OC)C(=O)NCc1ccc(Cl)nc1 [Compound 1-200, {2′-[3-(6-Chloro-pyridin-3-ylmethyl)-1-ethyl-ureidomethyl]-6-methoxy-4′-trifluoromethyl-biphenyl-3-yl}-acetic acid]
21 | – | < 300 | CCN(Cc1cc(C(F)(F)F)ccc1-c1cc(CC(=O)O)ccc1OC)C(=O)C1(O)CC1 [Compound 1-209, (2′-{[Ethyl-(1-hydroxy-cyclopropanecarbonyl)-amino]-methyl}-6-methoxy-4′-trifluoromethyl-biphenyl-3-yl)-acetic acid]
22 | – | < 300 | CCN(Cc1ccc(OC)cc1-c1cc(CC(=O)O)ccc1OC)C(=O)OCc1ccc(Cl)cc1 [Compound 1-195, (2′-{[(4-Chloro-benzyloxycarbonyl)-ethyl-amino]-methyl}-6,5′-dimethoxy-biphenyl-3-yl)-acetic acid]
23 | – | < 300 | CCN(Cc1cc(C(F)(F)F)ccc1-c1cc(Cl)cc(CC(=O)O)c1)C(=O)NC [Compound 1-201, [5-Chloro-2′-(1-ethyl-3-methyl-ureidomethyl)-4′-trifluoromethyl-biphenyl-3-yl]-acetic acid]

From patent US8067445B2, “N,N-disubstituted aminoalkylbiphenyl antagonists of prostaglandin D2 receptors” (Panmira Pharmaceuticals, LLC, priority 2008, dated 2011)
